Measurements as given in US9056835B2, “LPA2 receptor-specific benzoic acid derivatives” (University of Tennessee Research Foundation, priority 2012, dated 2015).

Legend:
[1] = tested on: Bax; assay: Immunoblot, Bax translocation; assay type: cell-based, mouse; settings: 10 μM
Protocol: Experiments were performed on vector- and LPA2-transduced MEF cells. To measure caspase 3, 7, 8, or 9 activity and DNA fragmentation, cells were plated in 48-well plates (2×10^4 cells/well). To detect PARP-1 cleavage and Bax translocation, 1.5×10^6 cells were plated in 10-cm dishes and cultured overnight in full growth medium. The next morning, the growth medium was replaced by serum-starvation medium and cells were pretreated for 1 h with LPA (1-10 μM), OTP (1-10 μM), GRI977143 (1-10 μM), or vehicle. Caspase activity, DNA fragmentation, PARP-1 cleavage, and Bax translocation were measured 5 h after incubation with 1.7 μM Adriamycin or 24 h after serum withdrawal.
(§1) To detect ligand-induced ERK1/2 activation, vector- and LPA2-transfected MEF cells were serum starved 3 h before exposure to 1 μM LPA, 1 μM OTP, 10 μM GRI977143, or vehicle for 10 min. For ERK1/2 activation and PARP-1 cleavage measurements, cells were harvested in 1× Laemmli sample buffer and separated using 12% Laemmli SDS-polyacrylamide gels. To assess Bax translocation, cell lysates were separated into cytosolic, mitochondrial, and nuclear fractions using the Cell Fractionation Kit-Standard (MitoSciences; Eugene, Oreg.). […] Samples were boiled for 5 min and loaded onto 12% SDS-polyacrylamide gels. Western blotting was carried out as previously described (Valentine et al., 2010). Primary antibodies against pERK1/2, PARP-1, Bax (Cell Signaling Technology; Beverly, Mass.), actin (Sigma-Aldrich), and anti-rabbit-horseradish peroxidase secondary antibodies (Promega) were used according to the instructions of the manufacturer.

[2] = tested on: ERK1/2; assay: Immunoblot, ERK1/2 activation; assay type: cell-based, mouse; settings: 10 μM, 10 min
Protocol: as §1

[3] = target: LPA2 (Homo sapiens, UniProt Q9HBW0); assay: Fura-2AM Ca2+ mobilization in LPA2 DKO MEF cells; assay type: cell-based; set-up: expressed in transfected cells; host or cells: mouse embryonic fibroblasts from LPA1/2 double-knockout mice, lentiviral transduction; settings: LPA2 Ca2+ mobilization in DKO MEF cells, mean fluorescence ratio
LPA2, sequence (Q9HBW0 whole entry): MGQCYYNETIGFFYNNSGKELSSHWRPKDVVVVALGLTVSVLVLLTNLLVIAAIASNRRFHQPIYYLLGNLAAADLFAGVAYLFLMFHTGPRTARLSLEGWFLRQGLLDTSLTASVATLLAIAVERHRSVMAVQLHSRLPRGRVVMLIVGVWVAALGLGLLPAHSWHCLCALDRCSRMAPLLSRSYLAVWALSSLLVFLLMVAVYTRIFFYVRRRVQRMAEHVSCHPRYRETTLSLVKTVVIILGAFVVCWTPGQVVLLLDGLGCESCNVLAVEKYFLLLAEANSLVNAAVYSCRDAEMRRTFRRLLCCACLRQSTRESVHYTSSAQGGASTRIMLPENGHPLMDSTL
Protocol: (§2) Fluorescence was read every 3.42 seconds for a total of 70 seconds at Ex/Emλ of 340/510 nm and 380/510 nm. Data (relative fluorescence) was then recorded as a mean fluorescence ratio value of the triplicates for each concentration. Graph Pad Prism version 5.0a was then used to fit a non-linear regression curve in a variable slope model (A) to determine the EC50, Emax, and curve fit (R^2)(B).
Mouse embryonic fibroblast (MEF) cells used in this study isolated from LPA1/2 double knock out (LPA2-DKO) mice {Lin, 2007 #132}. These MEF express LPA4/5/6 receptors endogenously at lower levels but completely lack LPA1/2/3 receptor subtypes. The human LPA2 receptor was reintroduced into these MEF cells by lentiviral transduction, which are designated LPA2 DKO MEF {Lin, 2007 #132}. Empty vector-transduced MEF cells, designates as EV DKO MEF, were used as a control. Cells were cultured in a DMEM supplemented with 10% v/v fetal bovine serum (FBS), 2 mM L-glutamine, 100 U/ml penicillin, and 100 μg/mL streptomycin. During serum starvation, the growth medium was replaced with DMEM containing 0.1% (w/v) BSA.
as §2

Structure (SMILES)	Bax translocation to the mitochondria ([1]; LPA2-transduced MEF, Adriamycin)	cytosolic Bax level ([1]; serum withdrawal model)	Bax translocation ([1]; vector-transduced MEF, Adriamycin)	increase in ERK1/2 activation ([2]; LPA2-transduced MEF)	ERK1/2 basal activity ([2]; vector-transduced MEF)	Emax (MFR) [3]
O=C(O)c1ccccc1SCCCN1C(=O)c2cccc3cccc(c23)C1=O [GRI977143]	maintained a high level of Bax in the cytoplasm	did not detect any change in cytosolic Bax level	failed to reduce Bax translocation	9.6 fold	did not alter the basal activity	–
CCCCCCCC/C=C\CCCCCCCC(=O)OC[C@@H](O)COP(=O)(O)O [LPA 18:1, Lysophosphatidic acid (18:1)]	–	–	–	–	–	1.2 MFR
